Test results as given in patent US8791132B2, “Compounds and methods for treatment of hypertension” (Medivation Technologies, Inc., priority 2011, dated 2014).
Read-outs that look alike come from different tables or passages of the source. One block for each compound: values may come before it.

What was measured:
[1] = biological target: T1, human recombinant adrenergic α2B receptor (Homo sapiens, UniProt P18089); experiment: Radioligand binding, adrenergic α2B ([3H]Rauwolscine)
T1 construct: expressed in transfected cells; host or cells: CHO-K1
T1 sequence (P18089 1-450): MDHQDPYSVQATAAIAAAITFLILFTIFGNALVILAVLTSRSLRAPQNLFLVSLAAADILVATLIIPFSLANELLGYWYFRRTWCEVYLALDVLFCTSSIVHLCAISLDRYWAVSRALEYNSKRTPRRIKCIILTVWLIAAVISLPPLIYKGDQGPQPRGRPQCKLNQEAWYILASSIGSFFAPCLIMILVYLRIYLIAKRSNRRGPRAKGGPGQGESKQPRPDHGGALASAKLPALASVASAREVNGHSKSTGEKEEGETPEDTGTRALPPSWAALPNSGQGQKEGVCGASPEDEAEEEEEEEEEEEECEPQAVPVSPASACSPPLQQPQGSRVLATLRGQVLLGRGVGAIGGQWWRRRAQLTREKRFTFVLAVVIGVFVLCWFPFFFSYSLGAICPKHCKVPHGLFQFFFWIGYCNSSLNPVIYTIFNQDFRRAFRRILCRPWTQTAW
Procedure, shortened: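 Membranes from CHO-K1 cells expressing human recombinant α2B, in 50 mM Tris-HCl pH 7.4, 12.5 mM MgCl2, 1 mM EDTA, 0.2% BSA, incubated with compound and 2.5 nM [3H]Rauwolscine, 60 min, 25 °C.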

[2] = biological target: T2, rat adrenergic α1B receptor (Rattus norvegicus, UniProt P15823); experiment: Radioligand binding, adrenergic α1B ([3H]Prazosin); details: for Percentage inhibition of ligand binding, Adrenergic α1B / Percentage inhibition of ligand binding, Adrenergic α1B (0.1 μM): 0.1 µM
T2 construct: rat adrenergic α1B receptor obtained from Wistar Rat liver; from tissue; host or cells: Wistar rat liver
T2 sequence (P15823 1-515): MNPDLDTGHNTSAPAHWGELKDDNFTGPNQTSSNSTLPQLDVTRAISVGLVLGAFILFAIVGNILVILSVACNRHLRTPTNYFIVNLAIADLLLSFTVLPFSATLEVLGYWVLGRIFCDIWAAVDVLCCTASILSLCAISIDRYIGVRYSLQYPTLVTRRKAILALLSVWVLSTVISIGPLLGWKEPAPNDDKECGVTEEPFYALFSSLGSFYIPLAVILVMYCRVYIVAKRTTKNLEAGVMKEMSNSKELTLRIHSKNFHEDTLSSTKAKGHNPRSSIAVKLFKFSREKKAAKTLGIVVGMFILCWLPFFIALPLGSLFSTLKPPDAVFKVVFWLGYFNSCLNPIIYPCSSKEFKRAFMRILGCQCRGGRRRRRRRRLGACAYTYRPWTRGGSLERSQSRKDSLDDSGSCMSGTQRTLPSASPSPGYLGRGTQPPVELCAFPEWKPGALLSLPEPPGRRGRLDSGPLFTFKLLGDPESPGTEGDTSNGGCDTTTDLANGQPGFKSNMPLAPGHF
Procedure, shortened: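 Specific binding, taken as total minus that remaining with 10 μM phentolamine, is measured after filtration and counting. Rat liver receptor preparation and 0.25 nM [3H]prazosin are incubated with compound in 50 mM Tris-HCl (pH 7.4, 0.5 mM EDTA) at 25° C for 60 min. Activity is reported as percent inhibition.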

[3] = biological target: T3, human recombinant adrenergic α2A receptor (Homo sapiens, UniProt P08913); experiment: Radioligand binding, adrenergic α2A ([3H]MK-912); details: for Percentage inhibition of ligand binding, Adrenergic α2A / Percentage inhibition of ligand binding, Adrenergic α2A (0.1 μM): 0.1 µM
T3 construct: expressed in transfected cells; host or cells: insect Sf9 cells
T3 sequence (P08913 1-465): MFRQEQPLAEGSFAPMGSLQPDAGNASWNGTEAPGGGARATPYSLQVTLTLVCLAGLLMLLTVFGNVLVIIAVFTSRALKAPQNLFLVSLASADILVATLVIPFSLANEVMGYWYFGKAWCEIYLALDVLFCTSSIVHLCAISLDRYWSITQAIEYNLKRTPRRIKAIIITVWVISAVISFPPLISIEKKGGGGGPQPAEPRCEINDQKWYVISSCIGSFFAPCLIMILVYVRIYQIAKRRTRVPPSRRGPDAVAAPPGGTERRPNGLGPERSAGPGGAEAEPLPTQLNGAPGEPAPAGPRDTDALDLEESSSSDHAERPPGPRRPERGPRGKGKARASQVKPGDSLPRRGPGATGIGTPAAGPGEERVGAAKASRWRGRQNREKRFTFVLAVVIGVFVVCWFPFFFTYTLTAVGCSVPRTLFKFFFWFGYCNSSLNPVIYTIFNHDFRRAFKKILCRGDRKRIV
Procedure, shortened: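 Receptor expressed in Sf9 cells, in 50 mM Tris-HCl pH 7.4, 12.5 mM MgCl2, 2 mM EDTA; compounds incubated with 1 nM [3H]MK-912 for 60 min at 25 °C.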

[4] = read-out: Percentage inhibition of ligand binding, Adrenergic α2B (0.03 μM), compound at 0.03 μM, [3H]Rauwolscine, repeat datapoints each shown
[5] = read-out: Percentage inhibition of ligand binding, Adrenergic α1B (0.1 μM), compound at 0.1 μM, [3H]Prazosin, repeat datapoints each shown
[6] = read-out: Percentage inhibition of ligand binding, Adrenergic α2A (0.1 μM), compound at 0.1 μM, [3H]MK-912, repeat datapoints each shown
[7] = compound at 0.03 μM, [3H]Rauwolscine, repeat assays, each datapoint shown, 0.03 µM
[8] = compound at 0.1 μM, [3H]Prazosin, repeat assays, each datapoint shown
[9] = compound at 0.1 μM, [3H]MK-912, repeat assays, each datapoint shown
[10] = compound at 0.1 μM, [3H]Prazosin, repeat assays, each datapoint shown, read-out: Percentage inhibition of ligand binding, Adrenergic α1B
[11] = 0.03 μM compound, read-out: Percentage inhibition of ligand binding, Adrenergic α2B
[12] = 0.1 μM compound, read-out: Percentage inhibition of ligand binding, Adrenergic α1B
[13] = 0.1 μM compound, read-out: Percentage inhibition of ligand binding, Adrenergic α2A
[14] = compound at 0.03 μM, [3H]Rauwolscine, repeat assays, each datapoint shown, read-out: Percentage inhibition of ligand binding, Adrenergic α2B
[15] = compound at 0.1 μM, [3H]MK-912, repeat assays, each datapoint shown, read-out: Percentage inhibition of ligand binding, Adrenergic α2A
[16] = compound at 0.1 μM, [3H]Prazosin, repeat datapoints each shown
[17] = compound at 0.1 μM, [3H]MK-912, repeat datapoints each shown
[18] = compound at 0.03 μM, [3H]Rauwolscine, repeat datapoints each shown, 0.03 µM

SMILES: CN1CCc2c(n(CC(O)c3ccncc3)c3ccc(Cl)cc23)C1 (single isomer, unassigned) [41b]
Percentage inhibition of ligand binding, Adrenergic α2B [1, 7]: 50%
Percentage inhibition of ligand binding, Adrenergic α1B [2, 8]: 50%
Percentage inhibition of ligand binding, Adrenergic α2A [3, 9]: 8%

SMILES: CC(C)(O)CCN1CCc2c(c3cc(Cl)ccc3n2CC(O)c2ccncc2)C1 (single isomer, unassigned) [11a, 4-[8-chloro-5-(2-hydroxy-2-pyridin-4-yl-ethyl)-1,3,4,5-tetrahydro-pyrido[4,3-b]indol-2-yl]-2-methyl-butan-2-ol]
Percentage inhibition of ligand binding, Adrenergic α2B [1, 7]: 28%
inhibition at 0.1 µM [2, 10]: 16%
Percentage inhibition of ligand binding, Adrenergic α2A [3, 9]: −6%

SMILES: Cc1ccc2c(c1)c1c(n2CC(O)c2ccc(C(N)=O)nc2)CCN(C)C1 (stereo not shown) [144a, 5-[2-(2,8-dimethyl-1,2,3,4-tetrahydro-pyrido[4,3-b]indol-5-yl)-1-hydroxy-ethyl]-pyridine-2-carboxylic acid amide]
inhibition at 0.03 µM [1, 4]: 40%
inhibition at 0.1 µM [2, 5]: 57%
inhibition at 0.1 µM [3, 6]: 1%

SMILES: OC(Cn1c2c(c3cc(Cl)ccc31)CNCC2)c1cccnc1 (stereo not shown) [II-89, 2-(8-chloro-1,2,3,4-tetrahydro-pyrido[4,3-b]indol-5-yl)-1-pyridin-3-yl-ethanol]
inhibition at 0.03 µM [1, 11]: 35%
inhibition at 0.1 µM [2, 12]: 13%
inhibition at 0.1 µM [3, 13]: -5%

SMILES: Cc1ccc2c(c1)c1c(n2CC(C)(O)c2ccc(C)nc2)CCN(C)C1 (single isomer, unassigned) [29a]
Percentage inhibition of ligand binding, Adrenergic α2B [1, 7]: 100%
inhibition at 0.03 µM [1, 14]: 98%
Ki ([1]; read-out: Ki α2B): 0.00109 µM
inhibition at 0.03 µM ([2]; compound at 0.03 μM, [3H]Prazosin, repeat assays, each datapoint shown, read-out: Percentage inhibition of ligand binding, Adrenergic α1B): 19%
Percentage inhibition of ligand binding, Adrenergic α1B [2, 8]: 38%
inhibition at 0.1 µM [2, 10]: 32%
Ki [3]: 0.0772 µM
inhibition at 0.03 µM ([3]; compound at 0.03 μM, [3H]MK-912, repeat assays, each datapoint shown, read-out: Percentage inhibition of ligand binding, Adrenergic α2A): 16%
Percentage inhibition of ligand binding, Adrenergic α2A [3, 9]: 39%
inhibition at 0.1 µM [3, 15]: 35%

SMILES: COc1ccc(C(O)Cn2c3c(c4cc(C)ccc42)CCN(C)C3)cc1 (single isomer, unassigned) [20b, 2-(2,6-dimethyl-1,2,3,4-tetrahydro-β-carbolin-9-yl)-1-(4-methoxy-phenyl)-ethanol]
Percentage inhibition of ligand binding, Adrenergic α2B [1, 7]: 36%
Percentage inhibition of ligand binding, Adrenergic α1B [2, 8]: 94%
Percentage inhibition of ligand binding, Adrenergic α2A [3, 9]: 28%

SMILES: Cc1cnc2c(c1)c1c(n2CC(C)(O)c2ccc(C)nc2)CCN2CCCC12 (single isomer, unassigned) [148c]
Percentage inhibition of ligand binding, Adrenergic α2B (0.03 μM) [1, 18]: 16%
Percentage inhibition of ligand binding, Adrenergic α1B (0.1 μM) [2, 16]: 6%
Percentage inhibition of ligand binding, Adrenergic α2A (0.1 μM) [3, 17]: −1%

SMILES: CNC(Cn1c2c(c3cc(C)ccc31)CN(C)CC2)c1ccc(F)cc1 (single isomer, unassigned) [II-12a, 2-(2,8-dimethyl-3,4-dihydro-1H-pyrido[4,3-b]indol-5(2H)-yl)-1-(4-fluorophenyl)-N-methyl ethanamine]
Percentage inhibition of ligand binding, Adrenergic α2B ([1]; 0.03 μM compound, 0.03 µM): 89%
Percentage inhibition of ligand binding, Adrenergic α1B ([2]; 0.1 μM compound): 26%
Percentage inhibition of ligand binding, Adrenergic α2A ([3]; 0.1 μM compound): 25%

The remaining lines, values ahead:

inhibition at 0.03 µM [1, 4]: 47%
inhibition at 0.1 µM [2, 5]: -2%
inhibition at 0.1 µM [3, 6]: -10%
SMILES: Cc1ccc2c(n1)c1c(n2CC(O)c2ccncc2)CCN2CCCC12 (stereo not shown) [II-122]

Percentage inhibition of ligand binding, Adrenergic α2B ([1]; 0.03 μM compound, 0.03 µM): 53%
Percentage inhibition of ligand binding, Adrenergic α1B ([2]; 0.1 μM compound): 32%
Percentage inhibition of ligand binding, Adrenergic α2A ([3]; 0.1 μM compound): 16%
SMILES: Cc1ccc2c(c1)c1c(n2C(C)C(O)c2ccccc2)CCN(C)C1 (single isomer, unassigned) [II-95a, 2-(2,8-dimethyl-1,2,3,4-tetrahydro-pyrido[4,3-b]indol-5-yl)1-phenyl-propan-1-ol]

inhibition at 0.03 µM [1, 14]: 4%
inhibition at 0.1 µM [2, 10]: 2%
inhibition at 0.1 µM [3, 15]: 1%
SMILES: Cc1ccc2c(c1)c1c(n2CC(=O)c2cc[n+]([O-])cc2)CCN(C)C1 [compound 68]

inhibition at 0.03 µM [1, 11]: 24%
inhibition at 0.1 µM [2, 12]: -4%
inhibition at 0.1 µM [3, 13]: 4%
SMILES: Cc1ccc2c(c1)c1c(n2CC(O)c2ccncc2)CCN(CCS(=O)(=O)O)C1 (stereo not shown) [II-97, 2-(3,4-dihydro-5-(2-hydroxy-2-(pyridin-4-yl)ethyl)-8-methyl-1H-pyrido[4,3-b]indol-2(5H)-yl)ethanesulfonic acid]

inhibition at 0.03 µM [1, 4]: 53%
inhibition at 0.1 µM [2, 5]: 57%
inhibition at 0.1 µM [3, 6]: 7%
SMILES: Cc1cnc2c(c1)c1c(n2CCc2ccncc2)CCN(C)C1 [II-240]

Percentage inhibition of ligand binding, Adrenergic α2B (0.03 μM) ([1]; compound at 0.03 μM, [3H]Rauwolscine, repeat datapoints each shown): 40%
Percentage inhibition of ligand binding, Adrenergic α1B (0.1 μM) [2, 16]: 7%
Percentage inhibition of ligand binding, Adrenergic α2A (0.1 μM) [3, 17]: −5%
SMILES: Cc1cnc2c(c1)c1c(n2CC(O)c2ccc(C#N)nc2)CCN(C)C1 (single isomer, unassigned) [II-114b, 5-[2-(3,6-dimethyl-5,6,7,8-tetrahydro-1,6,9-triaza-fluoren-9-yl)-1-hydroxy-ethyl]-pyridine-2-carbonitrile]

Percentage inhibition of ligand binding, Adrenergic α2B (0.03 μM) [1, 18]: 66%
Percentage inhibition of ligand binding, Adrenergic α1B (0.1 μM) [2, 16]: 20%
Percentage inhibition of ligand binding, Adrenergic α2A (0.1 μM) [3, 17]: 15%
SMILES: CC1Cc2c(c3cc(Cl)ccc3n2CC(C)(O)c2cccnc2)CN1C (single isomer, unassigned) [II-147b, 1-(8-chloro-2,3-dimethyl-3,4-dihydro-1H-pyrido[4,3-b]indol-5(2H)-yl)-2-(pyridin-3-yl)propan-2-ol]

Percentage inhibition of ligand binding, Adrenergic α2B (0.03 μM) [1, 18]: 97%
Percentage inhibition of ligand binding, Adrenergic α1B (0.1 μM) [2, 16]: 43%
Percentage inhibition of ligand binding, Adrenergic α2A (0.1 μM) [3, 17]: 41%
SMILES: CC(O)(Cn1c2c(c3cc(Cl)ccc31)C1CCCN1CC2)c1cccnc1 (stereo not shown) [II-130, 1-(10-chloro-2,3,5,6-tetrahydro-1H-indolizino[7,8-b]indol-7(11cH)-yl)-2-(pyridin-3-yl)propan-2-ol]

Percentage inhibition of ligand binding, Adrenergic α2B (0.03 μM) [1, 18]: 32%
Percentage inhibition of ligand binding, Adrenergic α1B (0.1 μM) [2, 16]: 31%
Percentage inhibition of ligand binding, Adrenergic α2A (0.1 μM) [3, 17]: 5%
SMILES: Cc1ccc2c(c1)c1c(n2CC(C)(O)c2ccc(C(N)=O)nc2)CCN(C)C1 (single isomer, unassigned) [II-136b, 5-(1-(1,2,3,4-tetrahydro-2,8-dimethylpyrido[4,3-b]indol-5-yl)-2-hydroxypropan-2-yl)pyridine-2-carboxamide]
